Reference: patent US9936622B2, “Apparatus for applying a pesticide to perennial crops” (Sumitomo Chemical Company, Limited, priority 2007, dated 2018)

Legend:
[1] = tested on: psyllids Creiis lituratus; assay: Field trial, subsurface application for the control of psyllids (lerp counts) on Eucalyptus dunni; assay type: in vivo; settings: for Mean lerp count per 5 terminal leaflets: subsurface application
Source text: (§1) Near Casino, northern New South Wales, Australia in the 2006-2007 season, chlothianidin as a suspension (200 g/L) in water at 0.5, 1.0 and 1.5 grams of active ingredient per tree (gai/tree) was applied to 2 year old Eucalyptus dunni trees for the control of psyllids Creiis lituratus during winter and chrysomelid leaf beetles during summer.
(§2) A single application below the soil surface was made by coulter 20-40 cm from the base of the stem of the trees and to a depth of 10-15 cm in 128 L of water per hectare. Psyllid lerp counts were taken 141 and 303 DAT (days after treatment). Tree height was measured at treatment and then at 303 DAT. Diameter at breast height was measured at 303 DAT.

[2] = tested on: 2 year old Eucalyptus dunni trees; assay: Field trial, effect of psyllid control on growth of E. dunni (tree height, diameter, wood volume); assay type: in vivo; settings: for Mean increase in tree height: 0-303 DAT
Source text: as §1, §2
The difference in volume between the untreated and the 1 gai/tree treatment can be calculated over 303 days

CN/C(=N\[N+](=O)[O-])NCc1cnc(Cl)s1 [Clothianidin, clothianidin]
Mean lerp count per 5 terminal leaflets ([1]; 0.5 gai/tree, Mar. 19, 2007 (303 DAT)): 3.50 B
Mean lerp count per 5 terminal leaflets ([1]; 0.5 gai/tree, Oct. 7, 2006 (141 DAT)): 2.33 b
Mean lerp count per 5 terminal leaflets ([1]; 1 gai/tree, Mar. 19, 2007 (303 DAT)): 2.06 B
Mean lerp count per 5 terminal leaflets ([1]; 1 gai/tree, Oct. 7, 2006 (141 DAT)): 0.71 c
Mean lerp count per 5 terminal leaflets ([1]; 1.5 gai/tree, Mar. 19, 2007 (303 DAT)): 0.69 B
Mean lerp count per 5 terminal leaflets ([1]; 1.5 gai/tree, Oct. 7, 2006 (141 DAT)): 0.58 c
psyllid lerp counts ([1]; sub-surface application at 0.5 to 1.5 gai/tree, up to 303 DAT): significantly reduced
Mean increase in tree height ([2]; 0.5 gai/tree): 198 ab cm
DBM (diameter at breast height, 1.3 m above ground level) ([2]; 0.5 gai/tree, 303 DAT): 5.44 cm
Mean tree height ([2]; 0.5 gai/tree, 303 DAT): 500 bc cm
Mean increase in tree height ([2]; 1 gai/tree): 228 a cm
DBM (diameter at breast height, 1.3 m above ground level) ([2]; 1 gai/tree, 303 DAT): 5.91 cm
Mean tree height ([2]; 1 gai/tree, 303 DAT): 526 b cm
Increase in wood volume ([2]; 1 gai/tree, 303 DAT, versus untreated): 8.5 m^3/ha
Mean tree diameter ([2]; 1 gai/tree, over 303 days): 5.91 cm
Mean tree height ([2]; 1 gai/tree, over 303 days): 5.26 m
Mean wood vol/ha ([2]; 1 gai/tree, over 303 days): 22.2 m^3
Mean increase in tree height ([2]; 1.5 gai/tree): 229 a cm
DBM (diameter at breast height, 1.3 m above ground level) ([2]; 1.5 gai/tree, 303 DAT): 6.67 cm
Mean tree height ([2]; 1.5 gai/tree, 303 DAT): 594 a cm
growth of E. dunni ([2]; sub-surface application at 0.5 to 1.5 gai/tree, high psyllid pressure, up to 303 DAT): improved
